According to US20240262878A1, “PHOTOACTIVATABLE GASDERMIN PROTEINS” (THE BOARD OF TRUSTEES OF THE UNIVERSITY OF ILLINOIS, priority 2021, published 2024):

Legend:
Hela cells [1] = test: PhoDer activation after pretreatment with PI3K/PLC modulators, calcium flare dynamics; format: cell-based
Method: Cell Culture. HeLa and RAW264.7 cells were maintained in Dulbecco's Modified Eagle Medium (DMEM) medium supplemented with 10% fetal bovine serum (FBS) and 1% penicillin and streptomycin. Cells were transfected at 50%-70% confluency using LIPOFECTAMINE® 2000 transfection reagent and incubated for 24 hours before imaging. Cells were never serum-starved. To examine endogenous inflammatory activation, RAW264.7 cells were treated with 100 ng/μL lipopolysaccharide (LPS, Invivogen) at the beginning of each experiment. Pretreatment to bias membrane composition by phosphatidylinositol 4,5-bisphosphate (PIP2) modifying enzymes was performed by incubating Hela cells in Hanks' Balanced Salt Solution (HBSS) buffer with inhibitors at 37° C. for 10 minutes to prior imaging at the following concentrations: for phosphoinositide 3-kinase (PI3K), cells were treated 10 μM wortmannin (Tocris); and for phospholipase C (PLC), cells were treated with 10 μM U73122 (Tocris). Cells were removed from the incubator and allowed to come to thermal equilibrium before being imaged in HBSS buffer at room temperature.
Fluorescence Imaging, Optogenetic Activation, and Post-Processing. All epifluorescence imaging was performed on a customized Nikon Ti2-E microscope equipped with individual control over excitation (EX) and emission (EM) filters, a fast LED light source (Lumencor) with fluid-cooled EMCCD (Andor), motorized stage, and examined under a 40× or 100× oil immersion objective under live focus tracking. For RFP, excitation (EX) and emission (EM) filter combinations (maxima/bandwidth in nm) are indicated. Cells were imaged at 12-15 second intervals. Emission intensities of individual cells were background-subtracted before normalization to zero time point, when optogenetic activation began. In the optical setup, optogenetic activation of PhoDer was performed using an EX filter at 440/20 nm for 20-30 ms across whole fields of view. This replicated the progression of endogenous activation of GSDMD observed in LPS-stimulated RAW264.7 cells. […] Where applicable, inhibitors were treated at the indicated concentration for 15 minutes prior to imaging.
Fluctuation Analysis and Quantification. To automate the objective isolation and quantitation of calcium flares, a post-processing algorithm was developed based on principles and normalization scheme detailed in work on photochromic stochastic optical fluctuation imaging (pcSOFI) (Dedecker et al. (2012) Proc. Natl. Acad. Sci. USA 109: 10909-10914). Briefly, fluctuation caused by the flares generate high autocorrelation signals in time-averaged series and yield high contrast at locales of the greatest ion flux. To truly reflect the local flux change, it is then normalized to remove dependence on the number of biosensors reporting at the given location using a scheme detailed previously (Mo et al. (2017) Nat. Methods 14 (4): 427-434). Using Matlab, rolling-window mean and rolling-window autocorrelation values were calculated for each pixel over each entire fluorescence time course that contained possible flares. A heuristic approach to window size was taken and a range of window sizes were examined using examples where calcium flares were visually distinct prior to setting the window size for all analyses. All such fluctuation images were then verified manually against intensity time course to ensure bone fide flare detection; particularly strong and non-overlapping flares were chosen and added to calculate kinetic parameters. […]

[2] = system: bone marrow-derived macrophages (BMDM); test: IL-1β cytokine release ELISA; format: cell-based; conditions: short-term LPS stimulation (5 minutes), mouse BMDM
Method: Cytokine Release. LPS-stimulated, IL-1β cytokine release from bone-marrow monocyte-derived macrophages ([…] mice) was measured using the QUANTIKINE® ELISA kit (R&D Systems). Cells were seeded in 96-well plates and pre-treated for 10 minutes with medium, 10 μM U73122, or 10 μM wortmannin. LPS (100 ng/μL, Invivogen) was then added to the cells for 5 minutes and the cell-free supernatants were recovered and subjected to the ELISA kit according to the manufacturer's instructions. The concentration of the samples in 96-well plates was measured via absorbance at 450 nm using an Epoch Microplate Spectrophotometer (Biotek Instruments). The OD values in six technical repeats each from a total of three mice (n=18) were converted into the […] levels reported via a power law fit of a serial dilution calibration curve.

full length human GSDMD = system: T1, full length human GSDMD
T1 sequence: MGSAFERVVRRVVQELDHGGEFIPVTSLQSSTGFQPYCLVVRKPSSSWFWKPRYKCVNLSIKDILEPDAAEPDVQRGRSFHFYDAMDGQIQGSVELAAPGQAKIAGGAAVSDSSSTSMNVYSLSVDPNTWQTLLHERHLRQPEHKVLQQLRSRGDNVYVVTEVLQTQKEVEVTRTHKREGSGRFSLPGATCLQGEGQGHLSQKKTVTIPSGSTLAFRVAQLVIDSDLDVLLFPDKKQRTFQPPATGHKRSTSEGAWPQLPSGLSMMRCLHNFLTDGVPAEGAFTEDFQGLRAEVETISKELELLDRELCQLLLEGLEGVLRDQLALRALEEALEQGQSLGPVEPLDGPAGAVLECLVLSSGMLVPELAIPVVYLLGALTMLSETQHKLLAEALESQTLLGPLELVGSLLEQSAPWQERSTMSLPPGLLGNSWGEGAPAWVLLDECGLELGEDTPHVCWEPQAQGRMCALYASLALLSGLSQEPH

Hela cells [3] = test: Reversible optogenetics, cyclic activation; format: cell-based
Method: Reversible Optogenetics. HeLa cells expressing a modified gasdermin protein of the invention (SEQ ID NO: 40) were subjected to cyclic activation. Whereas gasdermin lacking a photoactivatable linker has no ability to reverse and will kill the cell typically in 30 minutes or less, activation of reversible optogenetic gasdermin allow cells to stay alive for 2 hours or longer. Furthermore, upon closer examination, the cyclic activation pattern can clearly be detected in the response of these cells via autocorrelation function (FIG. 13). The “imprinting” of this cyclic pattern into the cellular response can only be possible if the optogenetic gasdermin protein is reversible.

Q: COC[C@H]1OC(=O)c2coc3c2[C@@]1(C)C1=C(C3=O)[C@@H]2CCC(=O)[C@@]2(C)C[C@H]1OC(C)=O [wortmannin] was tested. Which “spatial extent flares reached” value (Hela cells [1]; pretreatment 10 μM, n=27) did it give?
A: 12 μm

Q: COc1ccc2c(c1)CC[C@@H]1[C@@H]2CC[C@]2(C)[C@@H](NCCCCCCN3C(=O)C=CC3=O)CC[C@@H]12 [U73122] was tested. Which IL-1β release [2] did it give?
A: enhanced

Q: And the “pixel-wise calcium fluctuations, local pore activity per locale” value (Hela cells [1]; pretreated vs non-pretreated cells)?
A: highest activity per locale

Q: What about the “intracellular calcium progression after PhoDer activation” value (Hela cells [1]; pretreatment 10 μM) of the same molecule?
A: steep, cumulative rise in intracellular calcium

Q: What does the source list for Cc1cc(C)c(S(=O)(=O)Nc2cccc(C(F)(F)F)c2)c(C)c1 [m-3m3FBS]?
A: IL-1β release [2]: did not limit LPS-stimulated IL-1β release; calcium flare occurrence / calcium response with PI3K/PLC activators (Hela cells [1]): inhibited flare occurrence for a short time

Q: caspase-1 was tested. Which “micro-current recordings in a POPE/POPC planar lipid bilayer” value (full length human GSDMD) did it give?
A: upon the addition of activated GSDMD (mixture with caspase-1 to cleave the C-terminal autoinhibition domain), minute current fluctuations were detected

Q: With 740 Y-P as the molecule, how does the IL-1β release [2] read?
A: failed to elicit meaningful differences

Q: And the “calcium flare occurrence / calcium response with PI3K/PLC activators” value (Hela cells [1])?
A: failed to elicit meaningful differences

B1: SEQ ID NO: 40: reversible optogenetic gasdermin variant, modified gasdermin protein of the invention (protein)
chain: MGSAFERVVRRVVQELDHGGEFIPVTSLQSSTGFQPYCLVVRKPSSSWFWKPRYKCVNLSIKDILEPDAAEPDVQRGRSFHFYDAMDGQIQGSVELAAPGQAKIAGGAAVSDSSSTSMNVYSLSVDPNTWQTLLHERHLRQPEHKVLQQLRSRGDNVYVVTEVLQTQKEVEVTRTHKREGSGRFSLPGATCLQGEGQGHLSQKKTVTIPSGSTLAFRVAQLVIDSDLDVLLFPDKKQRTFQPPATGHKRSTSEGAWPQLPSGLSMMRCLHNGGGGMLATTLERIEKNFVITDPRLPDNPIIFASDSFLQLTEYSREEILGRNCRFLQGPETDRATVRKIRDAIDNQTEVTVQLINYTKSGKKFWNVFHLQPMRDYKGDVQYFIGVQLDGTERLHGAAEREAVCLIKKTAFQIAEAANDENYFGGGGVPAEGAFTEDFQGLRAEVETISKELELLDRELCQLLLEGLEGVLRDQLALRALEEALEQGQSLGPVEPLDGPAGAVLECLVLSSGMLVPELAIPVVYLLGALTMLSETQHKLLAEALESQTLLGPLELVGSLLEQSAPWQERSTMSLPPGLLGNSWGEGAPAWVLLDECGLELGEDTPHVCWEPQAQGRMCALYASLALLSGLSQEPH
Q: Which results are given for B1?
A: time cells stay alive under activation (Hela cells [3]; HeLa cells, cyclic activation): ≥ 2 h; reversibility (autocorrelation function of cyclic activation) (Hela cells [3]; activations every 20 cycles): achieved
